Assays:
Type in all cases: functional
Conditions in all cases: read-out: GI
K562 = assay: Growth inhibition of human K562 cells at 10 uM incubated for 48 hrs by sulforhodamine B assay relative to control
SK-MEL-2 = assay: Growth inhibition of human SK-MEL-2 cells at 10 uM incubated for 48 hrs by sulforhodamine B assay relative to control
SW-620 = assay: Growth inhibition of human SW-620 cells at 10 uM incubated for 48 hrs by sulforhodamine B assay relative to control
MDA-MB-435 = assay: Growth inhibition of human MDA-MB-435 cells at 10 uM incubated for 48 hrs by sulforhodamine B assay relative to control
OVCAR-8 = assay: Growth inhibition of human OVCAR-8 cells at 10 uM incubated for 48 hrs by sulforhodamine B assay relative to control
NCI-H23 = assay: Growth inhibition of human NCI-H23 cells at 10 uM incubated for 48 hrs by sulforhodamine B assay relative to control
NCI-H460 = assay: Growth inhibition of human NCI-H460 cells at 10 uM incubated for 48 hrs by sulforhodamine B assay relative to control
SF-539 = assay: Growth inhibition of human SF-539 cells at 10 uM incubated for 48 hrs by sulforhodamine B assay relative to control
MDA-MB-231 = assay: Growth inhibition of human MDA-MB-231 cells at 10 uM incubated for 48 hrs by sulforhodamine B assay relative to control
KM12 = assay: Growth inhibition of human KM12 cells at 10 uM incubated for 48 hrs by sulforhodamine B assay relative to control
UO-31 = assay: Growth inhibition of human UO-31 cells at 10 uM incubated for 48 hrs by sulforhodamine B assay relative to control
NCI-H322M = assay: Growth inhibition of human NCI-H322M cells at 10 uM incubated for 48 hrs by sulforhodamine B assay relative to control
NCI-H522 = assay: Growth inhibition of human NCI-H522 cells at 10 uM incubated for 48 hrs by sulforhodamine B assay relative to control
SN12C = assay: Growth inhibition of human SN12C cells at 10 uM incubated for 48 hrs by sulforhodamine B assay relative to control
A498 = assay: Growth inhibition of human A498 cells at 10 uM incubated for 48 hrs by sulforhodamine B assay relative to control
EKVX = assay: Growth inhibition of human EKVX cells at 10 uM incubated for 48 hrs by sulforhodamine B assay relative to control

Row | Compound | inhibition of growth at 10 µM (K562) | inhibition of growth at 10 µM (SK-MEL-2) | inhibition of growth at 10 µM (SW-620) | inhibition of growth at 10 µM (MDA-MB-435) | inhibition of growth at 10 µM (OVCAR-8) | inhibition of growth at 10 µM (NCI-H23) | inhibition of growth at 10 µM (NCI-H460) | inhibition of growth at 10 µM (SF-539) | inhibition of growth at 10 µM (MDA-MB-231) | inhibition of growth at 10 µM (KM12) | inhibition of growth at 10 µM (UO-31) | inhibition of growth at 10 µM (NCI-H322M) | inhibition of growth at 10 µM (NCI-H522) | inhibition of growth at 10 µM (SN12C) | inhibition of growth at 10 µM (A498) | inhibition of growth at 10 µM (EKVX)
1 | O=C(CN1CCCCC1)Nc1ccc(-c2nc3ccccc3s2)cc1 | 49.8% | -7.06% | -9.04% | -6.67% | -3.73% | 20.8% | -1.42% | -0.41% | 41.5% | 3.6% | 6.94% | -11.9% | -4.5% | 6.04% |  | 
2 | O=C(CNC1CCCCC1)Nc1ccc(-c2nc3ccccc3s2)cc1 | 50.5% | -4.63% | -0.38% | 9.63% | 0.73% | 23.8% | 8.69% | 12.5% | 53.8% | 16.1% | 43.5% | 8.27% | 4.54% | 13.3% |  | 
3 | O=C(CNc1nnc(-c2ccc(Cl)cc2)o1)Nc1ccc(-c2nc3ccccc3s2)cc1 | 14.4% |  | -9.76% | 2.95% | -2.95% | 11.3% | 0.31% | 2.97% | 1.2% | 2.99% | 26.7% | 4.86% | 22.9% | 5.48% | 18% | -4.4%
4 | Cc1cc(C)n(CC(=O)Nc2ccc(-c3nc4ccccc4s3)cc2)n1 | -0.21% |  | -13.1% | -7.5% | 0.31% | 6.19% | -2.37% | 1.4% | -7.87% | -0.27% | 16.2% | 0.12% | -2.77% | -2.13% | 5.37% | -7.86%
5 | O=C(CNCc1ccccc1)Nc1ccc(-c2nc3ccccc3s2)cc1 | 11.6% | -7.25% | -1.34% | 4.91% | -1.99% | 9.23% | 3.57% | 17.8% | 16.9% | 2.66% | 20.5% | 17.8% | 9.64% | 5.25% |  | 
6 | O=C(CN1CCOCC1)Nc1ccc(-c2nc3ccccc3s2)cc1 | 0.74% | -14.6% | -7.93% | -7.79% | -2.44% | 4.49% | 0.34% | 10.3% | 3.16% | -6.84% | 4.97% | -0.11% | 5.46% | -1.02% |  | 
7 | O=C(CNc1ccccc1)Nc1ccc(-c2nc3ccccc3s2)cc1 | 22.5% | -4.93% | -6.41% | 12.6% | 9.58% | 11.9% | 0.08% | 12% | -0.13% | 5.48% | 30.2% | 12.9% | 26% | 8.85% |  | 
8 | Cc1cc(NCC(=O)Nc2ccc(-c3nc4ccccc4s3)cc2)no1 | 17% |  | -13.2% | -4.18% | 3.61% | 17.2% | -2.65% | -5.46% | -8.49% | -1.64% | 23% | -1.5% | 17.9% | -2.43% | 10.3% | -7.95%
9 | COc1ccc(NCC(=O)Nc2ccc(-c3nc4ccccc4s3)cc2)cc1 | 11.6% | -15.7% | -4.02% | -7.51% | 4.93% | 14.3% | 0.74% | 3.41% | 27.5% | 3.03% | 28.1% | 3% | 5.02% | 5.87% |  | 
10 | NS(=O)(=O)c1ccc(NCC(=O)Nc2ccc(-c3nc4ccccc4s3)cc2)cc1 | 91.6% | 12.2% | 36.3% | 23% | 17.3% | 25.3% | 7.45% | 8.62% | 55% | 38.4% | 25.6% | 12% | 164% | 52.2% |  | 
11 | O=C(Cn1cncn1)Nc1ccc(-c2nc3ccccc3s2)cc1 | 14.2% |  | -6.34% | -4.86% | 5.43% | 12.5% | 2.97% | -7.74% | 3.55% | 1.84% | 23.1% | -0.63% | 12.5% | 4.85% | 11.6% | 9.8%
12 | O=C(CNc1nc(-c2ccc(Cl)cc2)cs1)Nc1ccc(-c2nc3ccccc3s2)cc1 | 3.58% |  | 0.12% | -4.48% | 2.01% | 12.4% | 8.75% | 3.03% | 15.3% | 0.97% | 25.1% | 8.37% | 6.86% | -0.85% | -2.14% | -2.38%
13 | Cc1ccc(NCC(=O)Nc2ccc(-c3nc4ccccc4s3)cc2)cc1 | -0.15% | -6.66% | -7.34% | -1.83% | 7.13% | 16.4% | -2.34% | 2.9% | 22.3% | 0.91% | 37.5% | 4.73% | 12.3% | 11.1% |  | 
14 | O=C(CNc1nc2ccccc2s1)Nc1ccc(-c2nc3ccccc3s2)cc1 | 4.87% |  | -8.73% | -8.66% | -2.25% | 11.2% | 0.21% | -7.1% | 0.75% | 0.84% | 19.5% | 7.75% | 8.76% | -2.68% | 6.15% | -9.9%
15 | CN1CCN(CC(=O)Nc2ccc(-c3nc4ccccc4s3)cc2)CC1 | 58.2% |  | -2.26% | 74.6% | 8.74% | 17.8% | 15.3% | 132% | 40.2% | 14.4% | 42.5% | 22.1% | 41.1% | 22.3% | 40.5% | 16.3%

From ChEMBL document CHEMBL4765227, “Hit to lead optimization of a series of N-[4-(1,3-benzothiazol-2-yl)phenyl]acetamides as monoacylglycerol lipase inhibitors with potential anticancer activity” (Eur J Med Chem, 2016)
